According to ChEMBL document CHEMBL1125692 (J Med Chem, 1991):

What was measured:
D(2) dopamine receptor [1] = biological target: T1, D(2) dopamine receptor (Rattus norvegicus, UniProt P61169); assay: Displacement of [3H]- spiperone from dopamine receptor D2 of striatal membranes without sodium chloride
[2] = biological target: T2, Adrenergic receptor alpha-2 (Rattus norvegicus, UniProt P22086+P19328+P22909); assay: binding affinity towards alpha-2 adrenergic receptor, using [3H]- atipamezole as radioligand from rat frontal cortex membranes; assay type: tissue-based
T2 sequence (P22086 whole entry): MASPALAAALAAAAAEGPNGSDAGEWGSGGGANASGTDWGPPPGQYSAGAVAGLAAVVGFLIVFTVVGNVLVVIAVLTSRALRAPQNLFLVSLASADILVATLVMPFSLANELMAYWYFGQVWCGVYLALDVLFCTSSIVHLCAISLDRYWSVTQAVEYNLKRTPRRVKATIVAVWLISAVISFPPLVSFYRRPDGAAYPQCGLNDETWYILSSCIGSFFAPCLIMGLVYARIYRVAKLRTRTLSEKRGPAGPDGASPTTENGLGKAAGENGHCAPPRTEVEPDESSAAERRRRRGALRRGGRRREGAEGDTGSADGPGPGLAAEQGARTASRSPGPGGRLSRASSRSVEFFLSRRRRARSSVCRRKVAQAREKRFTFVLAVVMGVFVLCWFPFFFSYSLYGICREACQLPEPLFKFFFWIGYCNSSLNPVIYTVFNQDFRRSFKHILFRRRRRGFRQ
T2 sequence (P19328 whole entry): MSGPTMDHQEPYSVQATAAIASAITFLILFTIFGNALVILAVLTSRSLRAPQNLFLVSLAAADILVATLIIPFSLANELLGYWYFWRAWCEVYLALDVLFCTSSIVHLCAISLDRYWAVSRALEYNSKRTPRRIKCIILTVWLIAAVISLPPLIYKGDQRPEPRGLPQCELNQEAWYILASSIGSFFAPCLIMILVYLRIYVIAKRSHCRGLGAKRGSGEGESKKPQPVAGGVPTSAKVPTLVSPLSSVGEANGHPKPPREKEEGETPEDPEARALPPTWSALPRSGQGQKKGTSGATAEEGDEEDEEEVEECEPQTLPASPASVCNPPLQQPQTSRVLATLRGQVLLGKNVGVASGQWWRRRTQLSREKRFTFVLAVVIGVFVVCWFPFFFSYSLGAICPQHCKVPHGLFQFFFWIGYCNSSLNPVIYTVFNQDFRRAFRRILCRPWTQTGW
T2 sequence (P22909 whole entry): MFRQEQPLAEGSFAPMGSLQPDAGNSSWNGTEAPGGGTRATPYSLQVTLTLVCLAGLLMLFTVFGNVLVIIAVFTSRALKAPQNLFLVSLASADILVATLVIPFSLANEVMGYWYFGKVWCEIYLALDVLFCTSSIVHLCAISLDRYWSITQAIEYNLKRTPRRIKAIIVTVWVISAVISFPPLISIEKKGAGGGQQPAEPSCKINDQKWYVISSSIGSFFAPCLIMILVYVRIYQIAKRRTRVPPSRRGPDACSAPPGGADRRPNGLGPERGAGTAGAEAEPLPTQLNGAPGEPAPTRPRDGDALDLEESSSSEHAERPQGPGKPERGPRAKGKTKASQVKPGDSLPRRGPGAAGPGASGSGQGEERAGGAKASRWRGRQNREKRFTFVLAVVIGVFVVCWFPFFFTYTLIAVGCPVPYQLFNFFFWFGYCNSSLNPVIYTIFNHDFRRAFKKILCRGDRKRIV

D(2) dopamine receptor [3] = biological target: T1, D(2) dopamine receptor; assay: Compound was evaluated for binding affinity towards dopamine receptor D2 in striatal membranes, using [3H]- spiperone as radioligand in the presence of sodium chloride; assay type: cell membranes

T1 sequence (P61169 whole entry): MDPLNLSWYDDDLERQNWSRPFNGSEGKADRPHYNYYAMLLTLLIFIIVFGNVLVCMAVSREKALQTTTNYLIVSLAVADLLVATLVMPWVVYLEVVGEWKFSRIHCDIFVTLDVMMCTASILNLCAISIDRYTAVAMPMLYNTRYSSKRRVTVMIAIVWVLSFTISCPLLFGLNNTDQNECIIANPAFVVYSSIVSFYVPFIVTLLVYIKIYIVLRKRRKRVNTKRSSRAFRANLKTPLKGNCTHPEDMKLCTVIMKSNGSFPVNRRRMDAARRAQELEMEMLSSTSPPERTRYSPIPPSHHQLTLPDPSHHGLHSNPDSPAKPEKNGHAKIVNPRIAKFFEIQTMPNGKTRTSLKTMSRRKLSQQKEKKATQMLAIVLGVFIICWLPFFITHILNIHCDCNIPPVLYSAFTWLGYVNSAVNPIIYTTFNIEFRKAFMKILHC

Row | SMILES | Ki (D(2) dopamine receptor [1]) [nM] | Ki [2] [nM] | Ki (D(2) dopamine receptor [3]) [nM]
1 | CCN1CCC[C@H]1CNC(=O)c1cc(I)cc(OC)c1OC [EPIDEPRIDE] |  | 5 | 0.27
2 | CCN1CCC[C@H]1CNC(=O)c1cc(Br)cc(OC)c1OC | 0.76 |  | 0.2
3 | CCN1CCC[C@@H]1CNC(=O)c1cc(CCF)cc(OC)c1OC | > 10000 |  | 
4 | CCN1CCC[C@H]1CNC(=O)c1cccc(OC)c1OC | 66 |  | 
5 | CCCc1cc(OC)c(OC)c(C(=O)NC[C@@H]2CCCN2CC)c1 | 6.98 |  | 

The remaining lines, values ahead:

Row | Ki (D(2) dopamine receptor [1]) [nM] | Ki [2] [nM] | Ki (D(2) dopamine receptor [3]) [nM] | SMILES
6 | > 10000 |  |  | CCN1CCC[C@@H]1CNC(=O)c1c(O)c(CCCF)cc(OC)c1OC
7 | 0.77 | 9.5 | 0.24 | CCN1CCC[C@H]1CNC(=O)c1c(O)c(CCF)cc(OC)c1OC
8 | 4.4 |  | 1.17 | CCN1CCC[C@H]1CNC(=O)c1cc(CCCF)cc(OC)c1OC
9 | 0.8 | 11.1 | 0.25 | CCN1CCC[C@H]1CNC(=O)c1c(O)c(CCCF)cc(OC)c1OC
10 | 5.27 |  | 1.41 | CCN1CCC[C@H]1CNC(=O)c1cc(CCF)cc(OC)c1OC
11 | 1.28 |  |  | CCCc1cc(OC)c(OC)c(C(=O)NC[C@@H]2CCCN2CC)c1O
